The text below walks through data of US20260337156A1, “SOLUBILIZING COMPOUNDS” (Vivesto AB, priority 2022, published 2026).

This data set in a line: particle size and polydispersity index of drug micelles over time (ZetaSizer). The class given is physicochemical. Particulars: for change of particle size and polydispersity index over time: 0-24 h. The procedure: Micellar size was measured using a ZetaSizer from Malvern Panalytical.
A stock solution of docetaxel in methanol was mixed with a stock solution of compound 1 in a round bottom flask. The mixture was evaporated to dryness in a rotary evaporator. Final drying was performed in a desiccator to remove residual solvent. Hydration of the dried film was performed by adding water for injection (1.0 mL) to a concentration of 1 mg/mL of docetaxel. The resulting solution was filtered through a 0.22 μm sterile filter and further diluted with 0.9% sodium chloride solution to 0.5 mg/mL of docetaxel. […]
A stock solution of cyclosporin in methanol was mixed with a stock solution of compound 1 in a round bottom flask. The mixture was evaporated to dryness in a rotary evaporator. Final drying was performed in a desiccator to remove residual solvent. Hydration of the dried film was performed by adding water for injection (1.0 mL) to a concentration of 1 mg/mL of cyclosporin. The resulting solution was filtered through a 0.22 μm sterile filter and further diluted with 0.9% sodium chloride solution to 0.5 mg/mL of cyclosporin. The final weight ratio of cyclosporin to micelle forming agent was 1:3.
A stock solution of docetaxel in methanol was mixed with a stock solution of compound 3 in a round bottom flask. The mixture was evaporated to dryness in a rotary evaporator. Final drying was performed in a desiccator to remove residual solvent. Hydration of the dried film was performed by adding water for injection (1.0 mL) to a concentration of 1 mg/mL of docetaxel. The resulting solution was filtered through a 0.22 μm sterile filter and further diluted with 0.9% sodium chloride solution to 0.5 mg/mL of Docetaxel. The final weight ratio of docetaxel to micelle forming agent was 1:3.
A stock solution of cyclosporin in methanol was mixed with a stock solution of compound 3 in a round bottom flask. The mixture was evaporated to dryness in a rotary evaporator. Final drying was performed in a desiccator to remove residual solvent. Hydration of the dried film was performed by adding water for injection (1.0 mL) to a concentration of 1 mg/mL of cyclosporin. The resulting solution was filtered through a 0.22 μm sterile filter and further diluted with 0.9% sodium chloride solution to 0.5 mg/mL of cyclosporin. The final weight ratio of cyclosporin to micelle forming agent was 1:3.
A stock solution of docetaxel in methanol was mixed with a stock solution of compound 4 in a round bottom flask. The mixture was evaporated to dryness in a rotary evaporator. Final drying was performed in a desiccator to remove residual solvent. Hydration of the dried film was performed by adding water for injection (1.0 mL) to a concentration of 1 mg/mL of docetaxel. The resulting solution was filtered through a 0.22 μm sterile filter and further diluted with 0.9% sodium chloride solution to 0.5 mg/mL of docetaxel. […]
A stock solution of docetaxel in methanol was mixed with a stock solution of compound 5 in a round bottom flask. The mixture was evaporated to dryness in a rotary evaporator. Final drying was performed in a desiccator to remove residual solvent. Hydration of the dried film was performed by adding water for injection (1.0 mL) to a concentration of 1 mg/mL of docetaxel. The resulting solution was filtered through a 0.22 μm sterile filter and further diluted with 0.9% sodium chloride solution to 0.5 mg/mL of docetaxel. The final weight ratio of docetaxel to micelle forming agent was 1:3.
A stock solution of cabazitaxel in methanol was mixed with a stock solution of compound 5 in a round bottom flask. The mixture was evaporated to dryness in a rotary evaporator. Final drying was performed in a desiccator to remove residual solvent. Hydration of the dried film was performed by adding water for injection (1.0 mL) to a concentration of 1 mg/mL of cabazitaxel. […]

Setting [1] is: cabazitaxel:compound 1:3, cabazitaxel 0.5 mg/mL, time 0 h.
[2] abbreviates: cabazitaxel:compound 1:3, cabazitaxel 0.5 mg/mL, time 1 h.
The mark [3] stands for this setting: cabazitaxel:compound 1:3, cabazitaxel 0.5 mg/mL, time 2 h.
Where [4] appears, read: cabazitaxel:compound 1:3, cabazitaxel 0.5 mg/mL, time 4 h.
Setting [5] is: cabazitaxel:compound 1:3, cabazitaxel 0.5 mg/mL, time 6 h.
The mark [6] stands for this setting: cabazitaxel:compound 1:3, cabazitaxel 0.5 mg/mL, time 24 h.
The mark [7] stands for this setting: docetaxel:compound 1:3, docetaxel 0.5 mg/mL.
Where [8] appears, read: docetaxel:compound 1:3, docetaxel 0.5 mg/mL, time 0 h.
Where [9] appears, read: docetaxel:compound 1:3, docetaxel 0.5 mg/mL, time 1 h.
Setting [10] is: docetaxel:compound 1:3, docetaxel 0.5 mg/mL, time 2 h.
Setting [11] is: docetaxel:compound 1:3, docetaxel 0.5 mg/mL, time 4 h.
[12] abbreviates: docetaxel:compound 1:3, docetaxel 0.5 mg/mL, time 6 h.
Setting [13] is: docetaxel:compound 1:3, docetaxel 0.5 mg/mL, time 24 h.
Where [14] appears, read: docetaxel:compound 1:5, docetaxel 0.5 mg/mL, time 0 h.
The mark [15] stands for this setting: docetaxel:compound 1:5, docetaxel 0.5 mg/mL, time 1 h.
Setting [16] is: docetaxel:compound 1:5, docetaxel 0.5 mg/mL, time 2 h.
[17] abbreviates: docetaxel:compound 1:5, docetaxel 0.5 mg/mL, time 4 h.
[18] abbreviates: docetaxel:compound 1:5, docetaxel 0.5 mg/mL, time 6 h.
[19] abbreviates: docetaxel:compound 1:5, docetaxel 0.5 mg/mL, time 24 h.

Take `COc1cc(C)c(/C=C/C(C)=C/C=C/C(C)=C/C(=O)N(CCS(=O)(=O)[O-])CC(N)=O)c(C)c1C.[Na+]` [Compound 5]: the “change of particle size and polydispersity index over time” value was “Small variations in the particle size and the polydispersity index over time were noted” (cabazitaxel:compound 1:3, cabazitaxel 0.5 mg/mL); “An increase in the particle size and very small variations of the polydispersity index over time were noted” under setting [7]. Moreover, the Particle size reads like this: under setting [1], 93.83 nm; under setting [2], 98.08 nm; under setting [3], 102.2 nm; under setting [4], 106.6 nm; under setting [5], 108.8 nm; under setting [6], 83.42 nm. The Particle size is, setting by setting: under setting [8], 59.40 nm; under setting [9], 66.24 nm; under setting [10], 75.40 nm; under setting [11], 82.19 nm; under setting [12], 87.95 nm; under setting [13], 105.7 nm. In addition, the Polydispersity index is listed as 0.19 under setting [1]; 0.20 under setting [2]; 0.21 under setting [3]; 0.20 under setting [4]; 0.21 under setting [5]; 0.39 under setting [6]. The Polydispersity index amounted to 0.17 under setting [8]; 0.16 under setting [9]; 0.14 under setting [10]; 0.13 under setting [11]; 0.13 under setting [12]; 0.14 under setting [13].
In the case of `COc1cc(C)c(/C=C/C(C)=C/C=C/C(C)=C/C(=O)N2CCN(c3ccc(S(=O)(=O)[O-])cc3)CC2)c(C)c1C.[Na+]` [Compound 6], the “change of particle size and polydispersity index over time” value under setting [7] is “Small variations in the particle size and the polydispersity index over time were noted”. Moreover, the Particle size came out at 61.37 nm under setting [8]; 61.27 nm under setting [9]; 64.21 nm under setting [10]; 67.34 nm under setting [11]; 69.84 nm under setting [12]; 66.18 nm under setting [13]. For the same compound, the Polydispersity index is, setting by setting: under setting [8], 0.22; under setting [9], 0.28; under setting [10], 0.28; under setting [11], 0.28; under setting [12], 0.28; under setting [13], 0.38.
Regarding `COc1cc(C)c(/C=C/C(C)=C/C=C/C(C)=C/C(=O)N(C)[C@H]2CC[C@H](CS(=O)(=O)[O-])CC2)c(C)c1C.[Na+]` [Compound 7], the “change of particle size and polydispersity index over time” value under setting [7] is “Small variations in the particle size and the polydispersity index over time were noted”. The Particle size was 100.8 nm under setting [8]; 97.60 nm under setting [9]; 97.60 nm under setting [10]; 96.90 nm under setting [11]; 99.12 nm under setting [12]; 96.76 nm under setting [13]. Also, the Polydispersity index came out at 0.23 under setting [8]; 0.24 under setting [9]; 0.24 under setting [10]; 0.25 under setting [11]; 0.25 under setting [12]; 0.26 under setting [13].
On to `COc1cc(C)c(/C=C/C(C)=C/C=C/C(C)=C/C(=O)N2CCC(CCS(=O)(=O)[O-])CC2)c(C)c1C.[Na+]` [Compound 8], for which the “change of particle size and polydispersity index over time” value under setting [7] was “Increase in the particle size and small variations the polydispersity index over time were noted”. The Particle size by setting is: under setting [8], 55.38 nm; under setting [9], 70.34 nm; under setting [10], 75.90 nm; under setting [11], 83.10 nm; under setting [12], 87.94 nm; under setting [13], 105.0 nm. Moreover, the Polydispersity index runs as follows: under setting [8], 0.20; under setting [9], 0.15; under setting [10], 0.13; under setting [11], 0.11; under setting [12], 0.12; under setting [13], 0.16.
For `COc1cc(C)c(/C=C/C(C)=C/C=C/C(C)=C/C(=O)N2CCN(C(=O)c3ccc(S(=O)(=O)[O-])cc3)CC2)c(C)c1C.[K+]` [Compound 9], under setting [7], the “change of particle size and polydispersity index over time” value was “Increase in the particle size and small variations the polydispersity index over time were noted”. In addition, the Particle size is recorded as 89.91 nm under setting [8]; 97.93 nm under setting [9]; 103.8 nm under setting [10]; 113.0 nm under setting [11]; 118.6 nm under setting [12]; 122.0 nm under setting [13]. Further, the Polydispersity index by setting is: under setting [8], 0.20; under setting [9], 0.20; under setting [10], 0.20; under setting [11], 0.17; under setting [12], 0.17; under setting [13], 0.22.
Turning to `COc1cc(C)c(/C=C/C(C)=C/C=C/C(C)=C/C(=O)N(CCO)Cc2ccc(N)cc2S(=O)(=O)[O-])c(C)c1C.[Na+]` [Compound 10], the “change of particle size and polydispersity index over time” value (docetaxel:compound 1:5, docetaxel 0.5 mg/mL) was “Increase in the particle size and minor decrease the polydispersity index over time were noted”. Further, the Particle size was found to be 52.29 nm under setting [14]; 62.51 nm under setting [15]; 70.07 nm under setting [16]; 78.98 nm under setting [17]; 85.10 nm under setting [18]; 107.4 nm under setting [19]. In addition, the Polydispersity index turned out to be 0.16 under setting [14]; 0.13 under setting [15]; 0.12 under setting [16]; 0.12 under setting [17]; 0.10 under setting [18]; 0.10 under setting [19].
